Reference: ChEMBL document CHEMBL1155276, “Anti-listerial activity and structure-activity relationships of the six major tyrocidines, cyclic decapeptides from Bacillus aneurinolyticus” (Bioorg Med Chem, 2009)
Non-standard residues stand in square brackets, D forms with d. Residues, ends and D or L forms follow the SMILES beside them. Orn = NCCC[C@H](N)C(=O)O

How the values were obtained:
[1] = tested on: Listeria monocytogenes; experiment: Antilysterial activity against leucocin A-sensitive Listeria monocytogenes B73 assessed as bacterial lysis at 10 uM after 60 mins by broth microdilution assay; assay type: functional
[2] = tested on: Listeria monocytogenes; experiment: Antibacterial activity against leucocin A-sensitive Listeria monocytogenes B73 after 16 hrs by broth microdilution assay; assay type: functional, organism-based; conditions: B73, 16 h
[3] = tested on: Micrococcus luteus; experiment: Antibacterial activity against Micrococcus luteus NCTC 8340 after 16 hrs by broth microdilution assay; assay type: functional, organism-based; conditions: NCTC 8340, 16 h
[4] = tested on: Listeria monocytogenes; experiment: Antibacterial activity against leucocin A-sensitive Listeria monocytogenes B73 after 16 hrs by micro-gel well diffusion assay; assay type: functional
[5] = tested on: Listeria monocytogenes; experiment: Antilysterial activity against leucocin A-sensitive Listeria monocytogenes B73 assessed as bacterial lysis half life at 10 uM by broth microdilution assay; assay type: functional, organism-based
[6] = tested on: Listeria monocytogenes; experiment: Antibacterial activity against leucocin A-resistant Listeria monocytogenes B73-MR1 after 16 hrs by micro-gel well diffusion assay; assay type: functional
[7] = tested on: Listeria monocytogenes; experiment: Antilysterial activity against leucocin A-sensitive Listeria monocytogenes B73 assessed as bacterial lysis per min at 10 uM by broth microdilution assay; assay type: functional
[8] = tested on: Listeria monocytogenes; experiment: Antibacterial activity against leucocin A-resistant Listeria monocytogenes B73-MR1 after 16 hrs by broth microdilution assay; assay type: functional, organism-based; conditions: B73-MR1, 16 h
[9] = tested on: Micrococcus luteus; experiment: Antibacterial activity against Micrococcus luteus NCTC 8340 after 16 hrs by micro-gel well diffusion assay; assay type: functional
[10] = tested on: Escherichia coli; experiment: Antibacterial activity against Escherichia coli HB101 at 200 ug/mL after 16 hrs by broth microdilution assay; assay type: functional

Row | SMILES | Activity [1] [%] | IC50 [2] | IC50 [3] | ICmax [4] | T1/2 [5] [min] | ICmax [6] | Activity [7] [%] | IC50 [8] | ICmax [9] | Activity [10] [%]
1 | CC(C)C[C@@H]1NC(=O)[C@H](CCCN)NC(=O)[C@H](C(C)C)NC(=O)[C@@H]2CCCN2C(=O)[C@@H](Cc2ccccc2)NC(=O)[C@H](CC(C)C)NC(=O)[C@H](CCCN)NC(=O)[C@H](C(C)C)NC(=O)[C@@H]2CCCN2C(=O)[C@@H](Cc2ccccc2)NC1=O [GRAMICIDIN S] (cyclo(L[dF]PV[Orn]L[dF]PV[Orn])) | 70 | 6.6 µM | 6.7 µM | 11 µM | 38.5 | 6.2 µM | 1.61 | 3.9 µM | 31 µM | –
2 | CC(C)C[C@@H]1NC(=O)[C@H](CCCCN)NC(=O)[C@H](C(C)C)NC(=O)[C@H](Cc2ccc(O)cc2)NC(=O)[C@H](CCC(N)=O)NC(=O)[C@H](CC(N)=O)NC(=O)[C@@H](Cc2ccccc2)NC(=O)[C@H](Cc2ccccc2)NC(=O)[C@@H]2CCCN2C(=O)[C@@H](Cc2ccccc2)NC1=O [TYROCIDINE A1] | 62 | 18 µM | 26 µM | 38 µM | 32.2 | 16 µM | 1.47 | 10 µM | 72 µM | <50
3 | CC(C)C[C@@H]1NC(=O)[C@H](CCCN)NC(=O)[C@H](C(C)C)NC(=O)[C@H](Cc2ccc(O)cc2)NC(=O)[C@H](CCC(N)=O)NC(=O)[C@H](CC(N)=O)NC(=O)[C@@H](Cc2ccccc2)NC(=O)[C@H](Cc2ccccc2)NC(=O)[C@@H]2CCCN2C(=O)[C@@H](Cc2ccccc2)NC1=O [TYROCIDINE A] (cyclo(F[dF]NQYV[Orn]L[dF]P)) | 59 | 13 µM | 22 µM | 25 µM | 32.3 | 16 µM | 1.62 | 9.9 µM | 70 µM | <50
4 | CC(C)C[C@@H]1NC(=O)[C@H](CCCCN)NC(=O)[C@H](C(C)C)NC(=O)[C@H](Cc2ccc(O)cc2)NC(=O)[C@H](CCC(N)=O)NC(=O)[C@H](CC(N)=O)NC(=O)[C@@H](Cc2ccccc2)NC(=O)[C@H](Cc2c[nH]c3ccccc23)NC(=O)[C@@H]2CCCN2C(=O)[C@@H](Cc2ccccc2)NC1=O [TYROCIDINE B1] | 63 | 8.1 µM | 4.2 µM | 15 µM | 29.6 | 10 µM | 1.68 | 6.7 µM | 8.9 µM | <50
5 | CC(C)C[C@@H]1NC(=O)[C@H](CCCN)NC(=O)[C@H](C(C)C)NC(=O)[C@H](Cc2ccc(O)cc2)NC(=O)[C@H](CCC(N)=O)NC(=O)[C@H](CC(N)=O)NC(=O)[C@@H](Cc2ccccc2)NC(=O)[C@H](Cc2c[nH]c3ccccc23)NC(=O)[C@@H]2CCCN2C(=O)[C@@H](Cc2ccccc2)NC1=O [TYROCIDINE B] | 64 | 10 µM | 6.5 µM | 15 µM | 28.8 | 12 µM | 1.53 | 7.7 µM | 9.9 µM | <50
6 | CC(C)C[C@@H]1NC(=O)[C@H](CCCCN)NC(=O)[C@H](C(C)C)NC(=O)[C@H](Cc2ccc(O)cc2)NC(=O)[C@H](CCC(N)=O)NC(=O)[C@H](CC(N)=O)NC(=O)[C@@H](Cc2c[nH]c3ccccc23)NC(=O)[C@H](Cc2c[nH]c3ccccc23)NC(=O)[C@@H]2CCCN2C(=O)[C@@H](Cc2ccccc2)NC1=O [TYROCIDINE C1] | 60 | 9.3 µM | 7.3 µM | 22 µM | 27.5 | 16 µM | 1.55 | 7.5 µM | 15 µM | <50
7 | CC(C)C[C@@H]1NC(=O)[C@H](CCCN)NC(=O)[C@H](C(C)C)NC(=O)[C@H](Cc2ccc(O)cc2)NC(=O)[C@H](CCC(N)=O)NC(=O)[C@H](CC(N)=O)NC(=O)[C@@H](Cc2c[nH]c3ccccc23)NC(=O)[C@H](Cc2c[nH]c3ccccc23)NC(=O)[C@@H]2CCCN2C(=O)[C@@H](Cc2ccccc2)NC1=O [TYROCIDINE C] | 66 | 9.5 µM | 6.4 µM | 13 µM | 31.2 | 11 µM | 1.48 | 7 µM | 9 µM | <50
8 | CC(C)C[C@@H]1NC(=O)[C@H](CCCN)NC(=O)[C@H](C(C)C)NC(=O)[C@H](Cc2ccc(O)cc2)N[C@@H](CCC(=O)O)C(=O)N[C@@H](CC(N)=O)C(=O)[C@@H](Cc2ccccc2)NC(=O)[C@H](Cc2ccccc2)NC(=O)[C@@H]2CCCN2C(=O)[C@@H](Cc2ccccc2)NC1=O [TYROTHRICIN] | – | 12 µg/mL | 3.5 µg/mL | 21 µg/mL | – | 29 µg/mL | – | 9.7 µg/mL | 6.3 µg/mL | –
